Test results: US11229618B2 (Amarin Pharmaceuticals Ireland Limited, priority 2012, dated 2022)

Experiments:
Assay type in all cases: in vivo, human
[1] = AAMI 6-week study: safety and tolerability
Protocol: All randomized subjects that received at least 1 dose of study medication were included in the Safety Population.
Safety evaluations were based on the safety population. Safety and tolerability were assessed in terms of AEs, vital signs, 12-lead ECG, clinical laboratory data, medical history, and study drug compliance. Safety and tolerability data were presented by treatment group.

[2] = Phase 1 multidose pharmacokinetic study: safety and tolerability; settings: all groups
From the text: The safety population was defined as all randomized subjects who received at least one dose of study drug. The per-protocol population was defined as all safety population subjects who completed the 28-day treatment period without any major protocol deviations, and who provided blood samples for EPA analyses.
Safety assessments consisted of adverse event (AE) monitoring, clinical laboratory measurements (chemistry, hematology, and urinalysis) 12-lead electrocardiographic measurements, vital signs (systolic and diastolic blood pressure, heart rate, respiratory rate, and oral body temperature) and physical examination findings.

fasting TG levels = assay: MARINE: fasting TG lowering and LDL-C; settings: for median percent reductions in TG from baseline, 4 g/day compared with 2 g/day: 12 weeks
Protocol: A multi-center, placebo-controlled randomized, double-blind, 12-week study with an open-label extension is performed to evaluate the efficacy and safety of AMR101 in patients with fasting triglyceride levels≥500 mg/dL. The primary objective of the study is to determine the efficacy of AMR101 2 g daily and 4 g daily, compared to placebo, in lowering fasting TG levels in patients with fasting TG levels≥500 mg/dL and ≤1500 mg/dL (≥5.65 mmol/L and ≤16.94 mmol/L).
The primary efficacy variable for the double-blind treatment period is percent change in TG from baseline to Week 12 endpoint. The secondary efficacy variables for the double-blind treatment period include the following: • Percent changes in total cholesterol (TC), high-density lipoprotein cholesterol (HDL-C), calculated low-density lipoprotein cholesterol (LDL-C), calculated non-high-density lipoprotein cholesterol (non-HDL-C), and very low-density lipoprotein cholesterol (VLDL-C) from baseline to Week 12 endpoint; • Percent change in very low-density lipoprotein TG from baseline to Week 12; • Percent changes in apolipoprotein A-I (apo A-I), apolipoprotein B (apo B), and apo A-I/apo B ratio from baseline to Week 12; • Percent changes in lipoprotein(a) from baseline to Week 12 (selected sites only); • Percent changes in LDL particle number and size, measured by nuclear magnetic resonance, from baseline to Week 12 (selected sites only); • Percent change in remnant-like particle cholesterol from baseline to Week 12 (selected sites only); • Percent change in oxidized LDL from baseline to Week 12 (selected sites only); • Changes in FPG and HbA1c from baseline to Week 12; • Change in insulin resistance, as assessed by the homeostasis model index insulin resistance, from baseline to Week 12; • Percent change in lipoprotein associated phospholipase A2 from baseline to Week 12 (selected sites only); • Change in intracellular adhesion molecule-1 from baseline to Week 12 (selected sites only); • Change in interleukin-6 from baseline to Week 12 (selected sites only); • Change in plasminogen activator inhibitor-1 from baseline to Week 12 (selected sites only); • Change in hsCRP from baseline to Week 12 (selected sites only); • Change in serum phospholipid EPA content from baseline to Week 12; • Change in red blood cell membrane EPA content from baseline to Week 12; and • Change in serum phospholipid and red blood cell membrane content in the following fatty acids from baseline to Week 12: docosapentaenoic acid, docosahexaenoic acid, arachidonic acid, palmitic acid, stearic acid, and oleic acid.
MARINE and ANCHOR were 12-week, phase 3, double-blind studies that randomized patients to IPE 4 g/day, 2 g/day, or placebo. […]

## CC/C=C\C/C=C\C/C=C\C/C=C\C/C=C\CCCC(=O)OCC [IPE, all-cis eicosa-5,8,11,14,17-pentaenoic acid ethyl ester]
[1]
  TEAEs Definitely Related to the study drug: No TEAEs were Definitely Related
  deaths during the study: no deaths
[1]; 1 g
  nausea Probably Related to the study drug: One subject
[1]; 1 g cohort
  subjects with nausea Possibly Related to the study drug: two
[1]; 2 g cohort
  subjects with nausea Possibly Related to the study drug: one
[1]; 2 g treatment group
  serious adverse events: One SAE
  subjects discontinued due to TEAEs: 2 subjects
[1]; 4 g
  diarrhea Probably Related to the study drug: Another subject
[1]; 4 g cohort
  subjects with nausea Possibly Related to the study drug: two
[1]; all groups
  severity and relatedness of most TEAEs: mild in severity and unrelated to study drug
[1]; ethyl-EPA treatment groups (placebo groups 34 events)
  treatment emergent AEs (TEAEs) reported: 105 events
[2]
  changes in laboratory, electrocardiographic, or physical examination findings: no clinically meaningful changes
  intensity of adverse events: mild or moderate in intensity
Fasting TG levels
  effect on LDL-C: without raising LDL-C
  median percent reductions in TG from baseline, 4 g/day compared with 2 g/day: higher with IPE 4 g/day than with 2 g/day
Fasting TG levels; listed as EPA
  median percent reductions in TG from baseline, 4 g/day compared with 2 g/day: higher for subjects administered about 4 grams of EPA per day
Fasting TG levels; patients with very high TG levels
  effect on TG levels: significantly reduced TG levels
